Data published in patent US20220249616A1, “Osteocrin, Lebetin or ANP for Destroying Bacterial Biofilms” (priority 2019, published 2022).
Read-outs that look alike come from different tables or passages of the source.

Experiments:
[1] = system: preformed biofilm of P. aeruginosa PA14; assay: microbe, parasite or virus in culture; details: for % Inhibition (30 min) / Biovolume (30 min): 30 min exposure; for Biovolume (30 min): non-treated 22.19
Method: (§1) Briefly, from an 18 h pre-culture, a bacterial suspension at OD600=0.08 prepared in sterile physiological saline solution was injected into each channel of the flow chamber. The bacteria were left for 2 h at 37° C. under static conditions (no flow) so that they adhered to the glass slide. Study of biofilm formation was then conducted under a flow of LB medium (2.5 ml/h) for 24 h at 37° C.
[…] Treatment of the preformed biofilm was conducted for 2 h at 37° C. under static conditions.
(§2) Treatment of the preformed biofilm was conducted for 2 h at 37° C. under static conditions.
To test the membrane integrity of the bacteria, a mixture of 5 μM SYTO 9 Green and 0.3 μM propidium iodide (PI) was used (Live/Dead BacLight Bacterial Viability Kit, Invitrogen).
as §2, §2, §2, §2
Treatment of the biofilm was conducted for 2 h at 37° C. under static conditions. […] Next, 300 μl of tobramycin (50 μg/ml) or 300 μl of milliQ sterile water (control conditions) were injected into the two channels of the flow chamber pre-exposed to ANP. The second treatment of the preformed biofilm was again conducted for 2 h at 37° C. under static conditions.

P. aeruginosa biofilm = details: Desriac et al. 2017, 2018; Rosay et al. 2015; cited from earlier work
P. aeruginosa P14 = assay: Growth of P. aeruginosa in liquid medium in the presence of ANP; format: cell-based, Pseudomonas aeruginosa; details: ANP at 1 μM and 0.1 μM
Method: The bacterial strains were cultured at 37° C. in Luria Bertani medium (LB) under agitation.
To determine a potential direct effect of ANP on the growth of P. aeruginosa, the inventors studied the impact of ANP at 1 μM and 0.1 μM on the growth of P. aeruginosa P14 in a liquid medium.

[2] = system: A549 human pulmonary epithelial cells infected with P. aeruginosa PA14; assay: LDH release by A549 cells infected with P. aeruginosa PA14 pre-treated with ANP (bacterial cytotoxicity); format: cell-based; details: for % LDH (dead cells): 6 h, MOI 10, PA14 non-treated 56.4 ± 5.5
Method: The line of human pulmonary epithelial cells of type II A549 (ATCC-CCL185TM, ATCC Manassas, Va.) was placed in culture at 37° C. under 5% CO2 atmosphere in DMEM medium (Lonza) supplemented with 10% foetal calf serum (Lonza) and 1% penicillin and streptomycin (Penistrep, Lonza). Under routine cell culture, the cells were seeded in a 25 ml flask and used at 80% confluence.
For cytotoxicity tests, the cells were seeded in 24-well plates to a final density of 3×10^5 cells per well and cultured 48 h before use. For a minimum time of 24 h before the infection tests, the cells were deprived of antibiotics and foetal calf serum through the addition of a medium without fresh serum.
The amount of LDH released by the eukaryote cells in the presence of bacteria, whether or not exposed to ANP (concentration of 1 μM at 10 nM), was determined using the Cytotox 96 enzymatic test (Promega, Charbonnières, France). The A549 cells were incubated for 6 h on a control (without treatment) or with P. aeruginosa PA14 (pre-treated with ANP) with a multiplicity of infection of 10. A lysis buffer consisting of Triton X-100 solution (9% in water), was employed to determine the maximum LDH potentially released by the A549 cells under the experimental conditions (100% LDH release). A level of background noise was determined using the culture medium alone and defined as 0% LDH release, to exclude contribution by the culture medium. Percentage LDH release in the cell population was then calculated with the equation: […]

[3] = system: P. aeruginosa biofilm in formation; assay: Formation of the P. aeruginosa biofilm under dynamic conditions; format: cell-based, Pseudomonas aeruginosa; details: ANP 0.1 μM
Method: After 3 h pre-culture in LB medium at 37° C., P. aeruginosa was inoculated at OD600=0.08 in LB medium and sub-cultured for 2 h.
The ANP (Calbiochem Merck) was added 2 h after the start of culture, a time corresponding to the middle of the exponential growth phase of the bacteria. Final bacterial density and absence of contamination were controlled by seeding.
as §1, with “The biofilms were formed under dynamic conditions at 37° C. in a 3-channel flow chamber as described in Bazire et al. (2010) J. Bacteriol. 192:3001-3010. Briefly,” for “Briefly,”

[4] = target: AmiC sensor of P. aeruginosa (Pseudomonas aeruginosa, UniProt P27017); details: Rosay et al. (2015); cited from earlier work
AmiC sensor of P. aeruginosa, sequence (P27017 whole entry): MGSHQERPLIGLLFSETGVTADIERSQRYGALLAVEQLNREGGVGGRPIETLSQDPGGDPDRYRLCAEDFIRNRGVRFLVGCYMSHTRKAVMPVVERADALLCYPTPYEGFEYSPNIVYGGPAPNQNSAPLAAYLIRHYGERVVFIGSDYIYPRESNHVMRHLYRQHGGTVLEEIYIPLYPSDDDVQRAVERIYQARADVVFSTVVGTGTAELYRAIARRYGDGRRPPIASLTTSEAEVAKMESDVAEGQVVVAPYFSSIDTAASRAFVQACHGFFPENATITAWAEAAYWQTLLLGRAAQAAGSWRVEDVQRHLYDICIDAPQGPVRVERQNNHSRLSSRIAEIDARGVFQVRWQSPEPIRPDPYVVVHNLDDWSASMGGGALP

P. aeruginosa = details: observed previously; by activating bacterial quorum-sensing systems; cited from earlier work
[5] = Pseudomonas aeruginosa, PA14, 2 h

Compound: O=C(O)c1cn(C2CC2)c2cc(N3CCNCC3)c(F)cc2c1=O [Ciprofloxacin, ciprofloxacin, reference compound]
- inhibition at 0.01 µg/mL [1, 5]: 90%
- inhibition at 0.04 µg/mL [1, 5]: 99.3%

Compound: NC[C@H]1O[C@H](O[C@H]2[C@H](O)[C@@H](O[C@H]3O[C@H](CO)[C@@H](O)[C@H](N)[C@H]3O)[C@H](N)C[C@@H]2N)[C@H](N)C[C@@H]1O [Tobramycin, tobramycin, reference compound]
- inhibition at 10 µg/mL [1, 5]: 78.5%
- inhibition at 50 µg/mL [1, 5]: 75.9%
- Biovolume ([1]; Tobramycin 10 μg/ml alone, 2 h, non-treated 13.5): 2.9 μm^3/μm^2
- Biovolume ([1]; Tobramycin 50 μg/ml alone, 2 h, non-treated 13.5): 3.26 μm^3/μm^2

Compound: Brain Natriuretic Peptide [BNP]
- formation of P. aeruginosa biofilm (P. aeruginosa biofilm): prevent the formation

Compound: CC[C@H](C)[C@@H]1NC(=O)[C@H](CCCNC(=N)N)NC(=O)[C@H](CC(=O)O)NC(=O)[C@H](CCSC)NC(=O)[C@H](CCCNC(=N)N)NC(=O)CNC(=O)CNC(=O)[C@H](Cc2ccccc2)NC(=O)[C@@H](NC(=O)[C@H](CO)NC(=O)[C@H](CO)NC(=O)[C@H](CCCNC(=N)N)NC(=O)[C@H](CCCNC(=N)N)NC(=O)[C@H](CC(C)C)NC(=O)[C@@H](N)CO)CSSC[C@@H](C(=O)N[C@@H](CC(N)=O)C(=O)N[C@@H](CO)C(=O)N[C@@H](Cc2ccccc2)C(=O)N[C@@H](CCCNC(=N)N)C(=O)N[C@@H](Cc2ccc(O)cc2)C(=O)O)NC(=O)CNC(=O)[C@H](CC(C)C)NC(=O)CNC(=O)[C@H](CO)NC(=O)[C@H](CCC(N)=O)NC(=O)[C@H](C)NC(=O)CNC1=O [ANP, Atrial Natriuretic Peptide]
- % Inhibition (30 min) ([1]; ANP 0.3 ng/ml): 57.5 (*) %
- Biovolume (30 min) ([1]; ANP 0.3 ng/ml): 9.5 μm^3/μm^2
- % Inhibition (2 h) ([1]; ANP 0.3 ng/ml, 2 h exposure): 45.1 (**) %
- Biovolume (2 h) ([1]; ANP 0.3 ng/ml, 2 h exposure, non-treated 21.1 (mean of all controls)): 10.6 μm^3/μm^2
- % Inhibition (30 min) ([1]; ANP 3 ng/ml): 59.1 (*) %
- Biovolume (30 min) ([1]; ANP 3 ng/ml): 8.8 μm^3/μm^2
- % Inhibition (2 h) ([1]; ANP 3 ng/ml, 2 h exposure): 65.9 (***) %
- Biovolume (2 h) ([1]; ANP 3 ng/ml, 2 h exposure, non-treated 21.1 (mean of all controls)): 6.3 μm^3/μm^2
- % Inhibition (30 min) ([1]; ANP 30 ng/ml): 69.0 (*) %
- Biovolume (30 min) ([1]; ANP 30 ng/ml): 6.7 μm^3/μm^2
- % Inhibition (2 h) ([1]; ANP 30 ng/ml, 2 h exposure): 72.5 (***) %
- Biovolume (2 h) ([1]; ANP 30 ng/ml, 2 h exposure, non-treated 21.1 (mean of all controls)): 4.4 μm^3/μm^2
- biofilm structure dispersed ([1]; ANP 0.1 μM for 2 h, even 30 minutes): about 80%
- thickness of the biofilm ([1]; ANP 0.1 μM, 2 h exposure): major reduction
- bacterial biomass reduced compared with control ([1]; ANP 0.1 μM, 2 hours exposure (P<0.001)): 81.4±4.1%
- % Inhibition (30 min) ([1]; ANP 300 ng/ml (0.1 μM)): 80.2 (*) %
- Biovolume (30 min) ([1]; ANP 300 ng/ml (0.1 μM)): 4.4 μm^3/μm^2
- % Inhibition (2 h) ([1]; ANP 300 ng/ml (0.1 μM), 2 h exposure): 81.4 (***) %
- Biovolume (2 h) ([1]; ANP 300 ng/ml (0.1 μM), 2 h exposure, non-treated 21.1 (mean of all controls)): 4.9 μm^3/μm^2
- % Inhibition ([1]; ANP 10^−8 M alone, 2 h (colistin experiment)): 73.5%
- % Inhibition ([1]; ANP 10^−8 M alone, 2 h (imipenem experiment)): 75.4%
- % Inhibition ([1]; ANP 10^−8 M alone, 2 h (polymyxin B experiment)): 75.3%
- Biovolume ([1]; ANP 10^−8 M alone, 2 h, non-treated 18.2 (polymyxin B experiment)): 4.5 μm^3/μm^2
- Biovolume ([1]; ANP 10^−8 M alone, 2 h, non-treated 18.5 (colistin experiment)): 4.9 μm^3/μm^2
- Biovolume ([1]; ANP 10^−8 M alone, 2 h, non-treated 28.0 (imipenem experiment)): 6.9 μm^3/μm^2
- % Inhibition ([1]; ANP 10^−9 M 2 h, then sterile water 2 h (sequential experiment)): 68.7%
- Biovolume ([1]; ANP 10^−9 M 2 h, then sterile water 2 h (sequential experiment), non-treated 13.1): 4.1 μm^3/μm^2
- % Inhibition ([1]; ANP 10^−9 M alone, 2 h (table with tobramycin 10 μg/ml)): 66.4%
- % Inhibition ([1]; ANP 10^−9 M alone, 2 h (table with tobramycin 50 μg/ml)): 66.4%
- Biovolume ([1]; ANP 10^−9 M alone, 2 h, non-treated 13.5 (table with tobramycin 10 μg/ml)): 4.53 μm^3/μm^2
- Biovolume ([1]; ANP 10^−9 M alone, 2 h, non-treated 13.5 (table with tobramycin 50 μg/ml)): 4.53 μm^3/μm^2
- remaining bacterial biomass reduced compared with control ([1]; ANP (0.1 μM per Example 1), 30 minutes exposure (P<0.05)): 80.2±2.0%
- pre-established P. aeruginosa biofilms destroyed ([1]; low dose (on and after 0.1 nM), as soon as 30 min after administration): about 80%
- dispersion of established biofilm (observation) ([1]; on and after the lowest concentration of 0.3 ng/ml, as soon as after exposure for 30 min): strongly dispersed
- effect on growth of P. aeruginosa (P. aeruginosa P14): None of the tested ANP concentrations affected bacterial growth
- impact on the cytotoxic activity of P. aeruginosa in pulmonary cells ([2]; ANP 1 μM to 10 nM): no impact
- % LDH (dead cells) ([2]; PA14 + ANP 10^−6 M): 58.9 ± 5.8%
- % LDH (dead cells) ([2]; PA14 + ANP 10^−7 M): 53.5 ± 5.3%
- % LDH (dead cells) ([2]; PA14 + ANP 10^−8 M): 54.5 ± 5.5%
- formation of a P. aeruginosa biofilm [3]: fully prevents
- binding onto the AmiC sensor of P. aeruginosa [4]: strong affinity
- formation of P. aeruginosa biofilm (P. aeruginosa biofilm): prevent the formation

Compound: C-type Natriuretic Peptide [CNP]
- formation of P. aeruginosa biofilm (P. aeruginosa biofilm): prevent the formation
- bacterial virulence and cytotoxicity (P. aeruginosa): slightly increased

Compound: osteocrin
- dispersion of established biofilm (observation) ([1]; 10^−8 M, 2 h exposure): strongly and significantly dispersed
- % Inhibition (2 h) ([1]; Osteocrin 10^−8 M, 2 h exposure): 59.4 (***) %
- Biovolume (2 h) ([1]; Osteocrin 10^−8 M, 2 h exposure, non-treated 29.8): 12.1 μm^3/μm^2
- binding onto the AmiC sensor of P. aeruginosa [4]: strong affinity

Compound: polymyxin B [reference compound]
- % Inhibition ([1]; Polymyxin B 4 μg/ml alone, 2 h): 59.3%
- Biovolume ([1]; Polymyxin B 4 μg/ml alone, 2 h, non-treated 18.2): 7.4 μm^3/μm^2

Compound: lebetin 2α (GDNKPPKKGPPNGCFGHKIDRIGSHSGLGCNKVDDNKG) [Lebetin L2 alpha]
- dispersion of established biofilm (observation) ([1]; 10^−8 M, 2 h exposure): strongly and significantly dispersed
- % Inhibition (2 h) ([1]; Lebetin L2 alpha 10^−8 M, 2 h exposure): 70.2 (***) %
- Biovolume (2 h) ([1]; Lebetin L2 alpha 10^−8 M, 2 h exposure, non-treated 29.7): 8.9 μm^3/μm^2
- binding onto the AmiC sensor of P. aeruginosa [4]: strong affinity

Compound: C[C@@H](O)[C@H]1C(=O)N2C(C(=O)O)=C(SCCN=CN)C[C@H]12 [Imipenem, imipenem, reference compound]
- Biovolume [1]: 7.0 μm^3/μm^2
- inhibition at 0.5 µg/mL [1, 5]: 75%

Compound: lebetin 1β [Lebetin L1 beta]
- dispersion of established biofilm (observation) ([1]; 10^−8 M, 2 h exposure): strongly dispersed
- % Inhibition (2 h) ([1]; Lebetin L1 beta 10^−8 M, 2 h exposure): 67.0%
- Biovolume (2 h) ([1]; Lebetin L1 beta 10^−8 M, 2 h exposure, non-treated 21.0): 6.9 μm^3/μm^2

Compound: colistin [reference compound]
- % Inhibition ([1]; Colistin 1 μg/ml alone, 2 h): 88.6%
- Biovolume ([1]; Colistin 1 μg/ml alone, 2 h, non-treated 18.5): 2.1 μm^3/μm^2
